In patent publication US20260053834A1, “COVALENT MODIFIERS OF AKT1 AND USES THEREOF” (Terremoto Biosciences, Inc., priority 2023, published 2026):

Legend:
[1] = tested on: LAPC4 prostate cancer cells, which express the AKT1 E17K allele; experiment: Antiproliferative effects in LAPC4 cells (CellTiter Glo, 72 h); assay type: cell-based; conditions: Homo sapiens, LAPC4, 72 h, read-out: LAPC4 proliferation IC50: GeoMean IC50
Method in brief: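 IC50 values come from Hill-equation fitting of luminescence (cellular ATP) after 72 h compound exposure. Treated wells held 1,000 cells each, with compound delivered as DMSO dilutions. Culture medium was IMDM plus 12% FBS.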

[2] = molecular target: T1, AKT2 (Homo sapiens, UniProt P31751); experiment: Live cell target engagement by NanoBRET competitive probe displacement, AKT2; assay type: binding; conditions: transfected HEK293 cells, 2 h at 37° C., read-out: AKT2 IC50: GeoMean IC50
T1 construct: expressed in transfected cells; host or cells: HEK293
T1 sequence (P31751 whole entry): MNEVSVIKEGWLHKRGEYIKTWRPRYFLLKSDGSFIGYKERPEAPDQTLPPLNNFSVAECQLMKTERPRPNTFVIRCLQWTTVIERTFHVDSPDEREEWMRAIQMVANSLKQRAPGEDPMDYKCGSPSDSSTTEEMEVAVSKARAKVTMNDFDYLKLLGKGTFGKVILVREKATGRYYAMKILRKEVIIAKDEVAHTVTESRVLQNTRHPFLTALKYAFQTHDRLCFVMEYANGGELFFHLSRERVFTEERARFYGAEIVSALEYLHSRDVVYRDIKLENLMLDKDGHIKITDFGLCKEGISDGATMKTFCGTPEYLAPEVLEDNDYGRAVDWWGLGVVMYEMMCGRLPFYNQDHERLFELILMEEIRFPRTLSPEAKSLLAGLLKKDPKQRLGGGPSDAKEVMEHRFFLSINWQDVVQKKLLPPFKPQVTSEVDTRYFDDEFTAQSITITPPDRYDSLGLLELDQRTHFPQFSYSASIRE

[3] = molecular target: T2, AKT1 E17K (Homo sapiens, UniProt P31749, E17K); experiment: Live cell target engagement by NanoBRET competitive probe displacement, AKT1 E17K; assay type: binding; conditions: transfected HEK293 cells, 2 h at 37° C., read-out: AKT1 E17K IC50: GeoMean IC50
T2 construct: expressed in transfected cells; host or cells: HEK293
T2 sequence (P31749 whole entry E17K): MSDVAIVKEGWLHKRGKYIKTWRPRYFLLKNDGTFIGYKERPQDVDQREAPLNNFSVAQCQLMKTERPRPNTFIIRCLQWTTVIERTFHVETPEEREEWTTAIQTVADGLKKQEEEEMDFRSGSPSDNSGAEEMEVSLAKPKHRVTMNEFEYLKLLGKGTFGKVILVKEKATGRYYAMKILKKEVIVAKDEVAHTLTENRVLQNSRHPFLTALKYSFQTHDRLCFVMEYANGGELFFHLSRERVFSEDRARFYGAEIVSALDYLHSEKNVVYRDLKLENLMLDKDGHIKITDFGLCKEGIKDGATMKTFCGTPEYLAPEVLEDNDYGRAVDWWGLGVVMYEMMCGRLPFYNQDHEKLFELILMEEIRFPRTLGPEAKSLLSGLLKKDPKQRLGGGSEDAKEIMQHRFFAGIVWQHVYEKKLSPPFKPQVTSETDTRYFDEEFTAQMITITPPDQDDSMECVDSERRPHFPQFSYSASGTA

[4] = molecular target: T3, AKT1 WT (Homo sapiens, UniProt P31749); experiment: Live cell target engagement by NanoBRET competitive probe displacement, AKT1 WT; assay type: binding; conditions: transfected HEK293 cells, 2 h at 37° C., read-out: AKT1 WT IC50: GeoMean IC50
T3 construct: expressed in transfected cells; host or cells: HEK293
T3 sequence (P31749 whole entry): as the sequence (P31749 whole entry E17K) above, with K17E counted along it

In the case of `Nc1ncc(F)cc1-c1nc2ccc(-n3cccn3)nc2n1-c1ccc2c(c1)CC[C@@H]2NC(=O)c1ccc(O)c(C=O)c1` [Example 163, (S)—N-(5-(2-(2-amino-5-fluoropyridin-3-yl)-5-(1H-pyrazol-1-yl)-3H-imidazo[4,5-b]pyridin-3-yl)-2,3-dihydro-1H-inden-1-yl)-3-formyl-4-hydroxybenzamide], the IC50 [1] is reported as no less than 2000 nM, the IC50 [2] is reported as no less than 2000 nM and the IC50 [3] is reported as 10 to 100 nM. The IC50 [4] was 10 to 100 nM.
With `CN1CC(n2ccc(-c3ccc4nc(-c5cccnc5N)n(-c5ccc6c(c5)CC[C@@H]6NC(=O)c5ccc(O)c(C=O)c5)c4n3)n2)C1` [Example 165, (S)—N-(5-(2-(2-aminopyridin-3-yl)-5-(1-(1-methylazetidin-3-yl)-1H-pyrazol-3-yl)-3H-imidazo[4,5-b]pyridin-3-yl)-2,3-dihydro-1H-inden-1-yl)-3-formyl-4-hydroxybenzamide] the IC50 [1] was 100 to 2000 nM, the IC50 [2] was 100 to 2000 nM and the IC50 [3] was 10 to 100 nM. It also gave an IC50 [4] of 10 to 100 nM.
In the case of `Cc1ccc(-c2nc3ccc(-n4cccn4)nc3n2-c2ccc3c(c2)CC[C@@H]3NC(=O)c2ccc(O)c(C=O)c2)c(N)n1` [Example 166, (S)—N-(5-(2-(2-amino-6-methylpyridin-3-yl)-5-(1H-pyrazol-1-yl)-3H-imidazo[4,5-b]pyridin-3-yl)-2,3-dihydro-1H-inden-1-yl)-3-formyl-4-hydroxybenzamide], the IC50 [1] is reported as no less than 2000 nM, the IC50 [2] is reported as no less than 2000 nM and the IC50 [3] is reported as no less than 2000 nM. The IC50 [4] was no less than 2000 nM.
`Cc1cnc(N)c(-c2nc3ccc(-n4cccn4)nc3n2-c2ccc3c(c2)CC[C@@H]3NC(=O)c2ccc(O)c(C=O)c2)c1` [Example 167, (S)—N-(5-(2-(2-amino-5-methylpyridin-3-yl)-5-(1H-pyrazol-1-yl)-3H-imidazo[4,5-b]pyridin-3-yl)-2,3-dihydro-1H-inden-1-yl)-3-formyl-4-hydroxybenzamide] was tested, and the IC50 [1] was no less than 2000 nM, the IC50 [2] was 100 to 2000 nM and the IC50 [3] was 100 to 2000 nM. It also gave an IC50 [4] of 100 to 2000 nM.
`Nc1ncccc1-c1nc2ccc(-n3cccn3)nc2n1-c1ccc2c(c1)CC[C@@H]2NC(=O)c1cc(C=O)c(O)c(OC(F)F)c1` [Example 168, (S)—N-(5-(2-(2-aminopyridin-3-yl)-5-(1H-pyrazol-1-yl)-3H-imidazo[4,5-b]pyridin-3-yl)-2,3-dihydro-1H-inden-1-yl)-3-(difluoromethoxy)-5-formyl-4-hydroxybenzamide] was tested, and the IC50 [1] was 100 to 2000 nM, the IC50 [2] was 100 to 2000 nM and the IC50 [3] was 10 to 100 nM. For the same compound, the IC50 [4] was 10 to 100 nM.
In the case of `Nc1ncccc1-c1nc2ccc(-n3cccn3)nc2n1-c1ccc2c(c1)CC[C@@H]2NC(=O)c1cc(C=O)c(O)c2nccn12` [Example 169, N-[(1S)-5-[2-(2-aminopyridin-3-yl)-5-(pyrazol-1-yl)imidazo[4,5-b]pyridin-3-yl]-2,3-dihydro-1H-inden-1-yl]-7-formyl-8-hydroxyimidazo[1,2-a]pyridine-5-carboxamide], the IC50 [1] is reported as 100 to 2000 nM, the IC50 [2] is reported as no less than 2000 nM and the IC50 [3] is reported as no less than 2000 nM. For the same compound, the IC50 [4] was no less than 2000 nM.
In the case of `Cn1c(=O)[nH]c2c(C=O)cc(C(=O)N[C@H]3CCc4cc(-n5c(-c6cccnc6N)nc6ccc(-n7cccn7)nc65)ccc43)cc21` [Example 170, (S)—N-(5-(2-(2-aminopyridin-3-yl)-5-(1H-pyrazol-1-yl)-3H-imidazo[4,5-b]pyridin-3-yl)-2,3-dihydro-1H-inden-1-yl)-7-formyl-3-methyl-2-oxo-2,3-dihydro-1H-benzo[d]imidazole-5-carboxamide], the IC50 [1] is reported as 10 to 100 nM, the IC50 [2] is reported as 100 to 2000 nM and the IC50 [3] is reported as less than 10 nM. It also gave an IC50 [4] of less than 10 nM.
`Nc1ncccc1-c1nc2ccc(-c3ccn(C4COC4)n3)nc2n1-c1ccc2c(c1)CC[C@@H]2NC(=O)c1ccc(O)c(C=O)c1` [Example 171, N-[(1S)-5-[2-(2-aminopyridin-3-yl)-5-[1-(oxetan-3-yl)pyrazol-3-yl]imidazo[4,5-b]pyridin-3-yl]-2,3-dihydro-1H-inden-1-yl]-3-formyl-4-hydroxybenzamide] gave an IC50 [1] of 100 to 2000 nM, an IC50 [2] of 100 to 2000 nM and an IC50 [3] of 10 to 100 nM. The IC50 [4] was 10 to 100 nM.
`Nc1ncccc1-c1nc2ccc(-n3ncc4cccnc43)nc2n1-c1ccc2c(c1)CC[C@@H]2NC(=O)c1cc(C=O)c(O)c(F)c1F` [Example 172, (S)—N-(5-(2-(2-aminopyridin-3-yl)-5-(1H-pyrazolo[3,4-b]pyridin-1-yl)-3H-imidazo[4,5-b]pyridin-3-yl)-2,3-dihydro-1H-inden-1-yl)-2,3-difluoro-5-formyl-4-hydroxybenzamide] showed an IC50 [1] of 10 to 100 nM, an IC50 [2] of 100 to 2000 nM and an IC50 [3] of 10 to 100 nM. For the same compound, the IC50 [4] was 10 to 100 nM.
For `Cc1nc(-c2ccc3nc(-c4cccnc4N)n(-c4ccc5c(c4)CC[C@@H]5NC(=O)c4ccc(O)c(C=O)c4)c3n2)no1` [Example 173, N-[(1S)-5-[2-(2-aminopyridin-3-yl)-5-(5-methyl-1,2,4-oxadiazol-3-yl)imidazo[4,5-b]pyridin-3-yl]-2,3-dihydro-1H-inden-1-yl]-3-formyl-4-hydroxybenzamide], the IC50 [1] was 100 to 2000 nM, the IC50 [2] was 100 to 2000 nM and the IC50 [3] was 10 to 100 nM. The IC50 [4] was 10 to 100 nM.
Work on `Cc1cnc(-c2ccc3nc(-c4cccnc4N)n(-c4ccc5c(c4)CC[C@@H]5NC(=O)c4ccc(O)c(C=O)c4)c3n2)o1` [Example 174, N-[(1S)-5-[2-(2-aminopyridin-3-yl)-5-(5-methyl-1,3-oxazol-2-yl)imidazo[4,5-b]pyridin-3-yl]-2,3-dihydro-1H-inden-1-yl]-3-formyl-4-hydroxybenzamide] yielded an IC50 [1] of 100 to 2000 nM, an IC50 [2] of 100 to 2000 nM and an IC50 [3] of 10 to 100 nM. For the same compound, the IC50 [4] was 10 to 100 nM.
In the case of `CN(C)c1nc2cc(C(=O)N[C@H]3CCc4cc(-n5c(-c6cccnc6N)nc6ccc(-n7cccn7)nc65)ccc43)cc(C=O)c2[nH]1` [Example 175, (S)—N-(5-(2-(2-aminopyridin-3-yl)-5-(1H-pyrazol-1-yl)-3H-imidazo[4,5-b]pyridin-3-yl)-2,3-dihydro-1H-inden-1-yl)-2-(dimethylamino)-7-formyl-1H-benzo[d]imidazole-5-carboxamide], the IC50 [1] is reported as less than 10 nM, the IC50 [2] is reported as 10 to 100 nM and the IC50 [3] is reported as less than 10 nM. The IC50 [4] was less than 10 nM.
In the case of `Nc1ncccc1-c1nc2ccc(-c3ccccc3)nc2n1-c1ccc2c(c1)CC[C@@H]2NC(=O)c1cc(C=O)c(O)c(Cl)n1` [Example 176, (S)—N-(5-(2-(2-aminopyridin-3-yl)-5-phenyl-3H-imidazo[4,5-b]pyridin-3-yl)-2,3-dihydro-1H-inden-1-yl)-6-chloro-4-formyl-5-hydroxypicolinamide], the IC50 [1] is reported as 100 to 2000 nM, the IC50 [2] is reported as 100 to 2000 nM and the IC50 [3] is reported as 10 to 100 nM. For the same compound, the IC50 [4] was 100 to 2000 nM.
Compound `Nc1ncccc1-c1nc2ccc(-n3cccn3)nc2n1-c1ccc2c(c1)CC[C@@H]2N1CCc2cc(O)c(C=O)cc2C1=O` [Example 177, 2-[(1S)-5-[2-(2-aminopyridin-3-yl)-5-(pyrazol-1-yl)imidazo[4,5-b]pyridin-3-yl]-2,3-dihydro-1H-inden-1-yl]-6-hydroxy-1-oxo-3,4-dihydroisoquinoline-7-carbaldehyde] has an IC50 [1] of no less than 2000 nM, an IC50 [2] of 100 to 2000 nM and an IC50 [3] of no less than 2000 nM. The IC50 [4] was no less than 2000 nM.
For `Cc1coc(-c2ccc3nc(-c4cccnc4N)n(-c4ccc5c(c4)CC[C@@H]5NC(=O)c4ccc(O)c(C=O)c4)c3n2)n1` [Example 178, N-[(1S)-5-[2-(2-aminopyridin-3-yl)-5-(4-methyl-1,3-oxazol-2-yl)imidazo[4,5-b]pyridin-3-yl]-2,3-dihydro-1H-inden-1-yl]-3-formyl-4-hydroxybenzamide], the IC50 [1] was 10 to 100 nM, the IC50 [2] was 100 to 2000 nM and the IC50 [3] was 10 to 100 nM. The IC50 [4] was 10 to 100 nM.
`Cc1noc(-c2ccc3nc(-c4cccnc4N)n(-c4ccc5c(c4)CC[C@@H]5NC(=O)c4ccc(O)c(C=O)c4)c3n2)n1` [Example 179, N-[(1S)-5-[2-(2-aminopyridin-3-yl)-5-(3-methyl-1,2,4-oxadiazol-5-yl)imidazo[4,5-b]pyridin-3-yl]-2,3-dihydro-1H-inden-1-yl]-3-formyl-4-hydroxybenzamide] showed an IC50 [1] of 100 to 2000 nM, an IC50 [2] of 100 to 2000 nM and an IC50 [3] of 10 to 100 nM. It also gave an IC50 [4] of 10 to 100 nM.
With `Cc1cc(-c2nccs2)nc2c1nc(-c1cccnc1N)n2-c1ccc2c(c1)CC[C@@H]2NC(=O)c1ccc(O)c(C=O)c1` [Example 180, N-[(1S)-5-[2-(2-aminopyridin-3-yl)-7-methyl-5-(1,3-thiazol-2-yl)imidazo[4,5-b]pyridin-3-yl]-2,3-dihydro-1H-inden-1-yl]-3-formyl-4-hydroxybenzamide] the IC50 [1] was 10 to 100 nM, the IC50 [2] was 10 to 100 nM and the IC50 [3] was 10 to 100 nM. For the same compound, the IC50 [4] was 10 to 100 nM.
In the case of `Cc1cc(-n2ccc(F)n2)nc2c1nc(-c1cccnc1N)n2-c1ccc2c(c1)CC[C@@H]2NC(=O)c1ccc(O)c(C=O)c1` [Example 181, (S)—N-(5-(2-(2-aminopyridin-3-yl)-5-(3-fluoro-1H-pyrazol-1-yl)-7-methyl-3H-imidazo[4,5-b]pyridin-3-yl)-2,3-dihydro-1H-inden-1-yl)-3-formyl-4-hydroxybenzamide], the IC50 [1] is reported as 100 to 2000 nM, the IC50 [2] is reported as 100 to 2000 nM and the IC50 [3] is reported as 10 to 100 nM. It also gave an IC50 [4] of 10 to 100 nM.
`COc1cc(C(=O)N[C@H]2CCc3cc(-n4c(-c5cccnc5N)nc5ccc(-n6cccn6)nc54)ccc32)cc(C=O)c1O` [Example 182, N-[(1S)-5-[2-(2-aminopyridin-3-yl)-5-(pyrazol-1-yl)imidazo[4,5-b]pyridin-3-yl]-2,3-dihydro-1H-inden-1-yl]-3-formyl-4-hydroxy-5-methoxybenzamide] showed an IC50 [1] of 100 to 2000 nM, an IC50 [2] of 100 to 2000 nM and an IC50 [3] of 10 to 100 nM. The IC50 [4] was 10 to 100 nM.
